Source: patent US6342602B1, “Aryl or heteroaryl amides of tetrahydronaphthalene, chroman, thichroman and 1,2,3,4-tetrahydroquinolinecarboxlic acids, having an electron withdrawing substituent in the aromatic or heteroaromatic moiety, having retinoid-like biological activity” (Allergan Sales, Inc., priority 1995, dated 2002)

Experiments:
ME-180 = experiment: Cancer cell line assay, incorporation of 3H-thymidine; assay type: cell-based, human; conditions: 10^−11 to 10^−6 molar concentration range, 96 hours
Protocol: (§1) All trans-Retinoic acid (t-RA) (Sigma Chemicals Co., St. Louis, M.) was stored at −70° C. Prior to each experimet the compound was dissolved in 100% ethanol at 1 mM and diluted in culture medium immediately before use. All experiments were performed in subdued light. Controls were assayed using the same concentration of ethanol as present in the experimental plates and this concentration of diluent had no effect in either assay.
ME-180 is a human epidermoid carcinoma cell line derived from the cervix. The tumor was a highly invasive squamous cell carcinoma with irregular cell clusters and no significant keratinization. ME-180 cells were grown and maintained in McCoy's 5a medium (Gibco) supplemented with 10% fetal bovine serum, glutamine and antibiotics. The cells were maintained as monolayer cultures grown at 37° C. in a humidified atmosphere of 5% CO2 in air. The cells were diluted to a concentration of 1×10^5/ml twice a week.
(§2) ME-180 wells, harvested by trypsinization were plated in a 96 well flat bottom microtiter plate (Costar) at a density of 2,000 cells/well. The cultures were treated as described above for RPMI 8226 with the following exceptions. After incubation with thymidine the supernatant was carefully removed, and the cells were washed with a 0.5 mM solution of thymidine in phosphate buffered saline. ME180 cells were briefly treated with 50 μl of 2.5% trypsin to dislodge the cells from the plate. AML-193 cells were plated in a 96 well round bottom microtiter plate (Costar) at a density of 1,000 cells/well. To appropriate wells, retinoid test compounds were added at the final concentrations indicated for a final volume of 150 μl/well. The plates were incubated for 96 hours at 37° C. in a humidified atmosphere of 5% CO2 in air. Subsequently, 1 μCi of [5′-^3H]-thymidine (Amersham, U.K., 43 Ci/mmol specific activity) in 25 μl culture medium was added to each well and the cells were incubated for an additional 6 hours.
(§3) All cells lines were then processed as follows: the cellular DNA was precipitated with […] trichloroacetic acid onto glass fiber filter mats using a SKATRON multi-well cell harvester (Skatron Instruments, Sterling Va.). Radioactivity incorporated into DNA, as a direct measurement of cell growth, was measured by liquid scintillation counting. The numbers represent the mean disintegrations per minute of incorporated thymidine from triplicate wells±SEM.

AML-193 = experiment: as above; assay type: cell-based; conditions: 10^−11 to 10^−6 molar concentration range, 96 hours
Protocol: as §1
AML-193 was established from the blast cells classified as M5 Acute Monocyte Leukemia. The growth factor, […] (GM-CSF) was required to establish this cell line and growth factors are necessary for its continuous proliferation in chemically defined medium. AML-193 cells were grown and maintained in Iscove's modified Dulbeccous medium supplemented with 10% fetal bovine serum, glutamine and antibiotics with 5 μg/ml insulin (Sigma Chemical Co.) and 2 ng/ml rh GM-CSF (R and D Systems). The cells were diluted to a concentration of 3×10^5/ml twice a week.
as §2, §3

Row | SMILES | proliferation of the tumor cell line (incorporation of radioactive labeled thymidine) (ME-180) | proliferation of the tumor cell line (incorporation of radioactive labeled thymidine) (AML-193)
1 | CC1(C)CCC(C)(C)c2c(Br)cc(C(=O)Nc3ccc(C(=O)O)c(F)c3)cc21 [Compound 6] | significant decrease in the proliferation | significant decrease in the proliferation
2 | CC1(C)CCC(C)(C)c2cc(C(=O)Nc3ccc(C(=O)O)c(F)c3)c(O)cc21 [Compound 8] | significant decrease in the proliferation | significant decrease in the proliferation
3 | CC1(C)CC(C)(C)c2cc(C(=O)Nc3ccc(C(=O)O)c(F)c3)cc(Br)c2O1 [Compound 12] | significant decrease in the proliferation | significant decrease in the proliferation
4 | CC1(C)CC(C)(C)c2cc(C(=O)Nc3ccc(C(=O)O)c(F)c3)cc(C(F)(F)F)c2O1 [Compound 14] | significant decrease in the proliferation | significant decrease in the proliferation
5 | CC1(C)CC(C)(C)c2cc(C(=O)Nc3ccc(C(=O)O)c(F)c3)cc(I)c2O1 [Compound 20] | significant decrease in the proliferation | significant decrease in the proliferation
